The values below come from patent US7846959B2, “Raf modulators and methods of use” (Exelixis, Inc., priority 2004, dated 2010).

In assay [1] the target is c-Raf (Homo sapiens, UniProt P04049). The experiment in a line: Luciferase-coupled chemiluminescence kinase assay (ATP consumption), c-Raf. The assay is classed as biochemical. How it is done: (§1) Tyrosine kinase activity is determined by 1) measurement of kinase-dependent ATP consumption by in the presence of a generic substrate such as […], tyrosine (pEY), by luciferase/luciferin-mediated chemiluminescence or; 2) incorporation of radioactive phosphate derived from ^33P-ATP into a generic substrate which has been adsorbed onto the well surface of polystyrene microtiter plates. Phosphorylated substrate products are quantified by scintillation spectrometry.
(§2) Luciferase-Coupled Chemiluminescence Assay Protocol
(§3) Kinase activity is measured as the percent of ATP consumed following the kinase reaction using luciferase-luciferin-coupled chemiluminescence. Reactions were conducted in 384-well white, medium binding microtiter plates (Greiner). Kinase reactions were initiated by combining test compounds, ATP and kinase in a 20 uL volume. The reaction mixture was incubated at ambient temperature for 3 hrs. For c-Raf, B-Raf, and B-RafV599E, […] of the enzyme was pre-incubated with compound in 20 mM Tris pH 7.5, 10 mM MgCl2, 0.03% TX-100, and 1 mM DTT for 30 minutes at room temperature. Following the kinase reaction, a 20 μL aliquot of luciferase-luciferin mix was added and the chemiluminescence signal measured using a Victor^2 plate reader (Perkin Elmer). The luciferase-luciferin mix contained 50 mM HEPES, pH 7.8, 67 mM oxalic acid (pH 7.8), 5 (or 50) mM DTT, 0.4% Triton X-100, 0.25 mg/mL coenzyme A, 63 μM AMP, 28 μg/mL luciferin and 40,000 units/mL luciferase. Total ATP consumption was limited to 25-60% and the IC50 values correlate well with those determined by radiometric assays.

Assay [2] has as its target B-Raf (Homo sapiens, UniProt P15056). Nature of the assay: Luciferase-coupled chemiluminescence kinase assay (ATP consumption), B-Raf. Type of assay: biochemical. The protocol: as §1, §2, §3
Where [3] appears, read: read-out: cRaf-1 (inhibition indicated as IC50).
Where [4] appears, read: read-out: bRaf (inhibition indicated as IC50).

Like-named read-outs stand apart in the source and are kept apart here. Where only a bound is given, the exact number is not on record here.

B-Raf, sequence (P15056 whole entry): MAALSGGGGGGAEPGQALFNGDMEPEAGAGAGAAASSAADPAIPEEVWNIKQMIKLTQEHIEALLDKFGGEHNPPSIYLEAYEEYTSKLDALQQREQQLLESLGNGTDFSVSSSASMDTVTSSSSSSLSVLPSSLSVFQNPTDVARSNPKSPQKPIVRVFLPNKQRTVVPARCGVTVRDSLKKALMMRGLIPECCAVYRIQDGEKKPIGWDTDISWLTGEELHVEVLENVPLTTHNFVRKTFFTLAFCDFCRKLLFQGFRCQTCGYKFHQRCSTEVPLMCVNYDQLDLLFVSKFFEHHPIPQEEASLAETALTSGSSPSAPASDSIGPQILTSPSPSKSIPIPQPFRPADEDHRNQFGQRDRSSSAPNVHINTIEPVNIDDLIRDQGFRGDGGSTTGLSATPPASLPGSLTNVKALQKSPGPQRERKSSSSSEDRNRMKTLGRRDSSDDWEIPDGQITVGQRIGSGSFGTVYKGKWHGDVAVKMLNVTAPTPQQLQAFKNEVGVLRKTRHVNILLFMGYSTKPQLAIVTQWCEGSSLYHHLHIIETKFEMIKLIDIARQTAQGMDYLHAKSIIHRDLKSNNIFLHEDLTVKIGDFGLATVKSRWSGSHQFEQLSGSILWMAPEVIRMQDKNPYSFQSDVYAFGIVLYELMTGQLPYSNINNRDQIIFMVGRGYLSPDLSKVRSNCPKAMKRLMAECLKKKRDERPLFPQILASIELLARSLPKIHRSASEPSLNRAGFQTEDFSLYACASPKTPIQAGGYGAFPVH
c-Raf, sequence (P04049 whole entry): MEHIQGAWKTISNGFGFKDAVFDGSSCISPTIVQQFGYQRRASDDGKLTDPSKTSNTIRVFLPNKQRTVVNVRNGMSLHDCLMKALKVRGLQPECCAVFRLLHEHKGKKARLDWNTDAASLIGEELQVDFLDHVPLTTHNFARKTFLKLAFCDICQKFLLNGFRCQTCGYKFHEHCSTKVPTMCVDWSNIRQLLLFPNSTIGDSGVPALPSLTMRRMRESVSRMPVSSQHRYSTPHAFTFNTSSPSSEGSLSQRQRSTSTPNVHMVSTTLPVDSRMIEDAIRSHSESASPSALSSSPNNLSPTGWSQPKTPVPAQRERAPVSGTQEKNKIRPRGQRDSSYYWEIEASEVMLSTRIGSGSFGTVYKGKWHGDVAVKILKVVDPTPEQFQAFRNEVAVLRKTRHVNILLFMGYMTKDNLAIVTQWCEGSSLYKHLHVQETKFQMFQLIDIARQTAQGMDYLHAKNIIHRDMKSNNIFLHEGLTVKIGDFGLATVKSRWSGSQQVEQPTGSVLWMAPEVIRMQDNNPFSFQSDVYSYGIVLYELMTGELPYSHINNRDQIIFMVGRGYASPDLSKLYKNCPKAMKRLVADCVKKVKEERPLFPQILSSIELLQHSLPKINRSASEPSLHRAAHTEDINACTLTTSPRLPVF

On to `O=C1c2ccccc2C(O)(c2ccc3[nH]c(Nc4ccccn4)nc3c2)N1c1cccc(Cl)c1F` (stereo not drawn) [Entry 332, 2-(3-chloro-2-fluorophenyl)-3-hydroxy-3-[2-(pyridin-2-ylamino)-1H-benzimidazol-5-yl]-2,3-dihydro-1H-isoindol-1-one], for which the IC50 in assay [1] (setting [3]) and in assay [2] (setting [4]) was under 0.1 µM each time.

With `O=C(Nc1nc2cc(C3(O)c4ccccc4C(=O)N3Cc3ccccc3)ccc2[nH]1)OC1CCNCC1` (stereo not drawn) [Entry 170, piperidin-4-yl {5-[1-hydroxy-3-oxo-2-(phenylmethyl)-2,3-dihydro-1H-isoindol-1-yl]-1H-benzimidazol-2-yl}carbamate], the IC50 in assay [1] (read-out: cRaf-1 IC50) and in assay [2] (read-out: bRaf IC50) was under 0.1 µM each time.

`O=C(CCCN1CCCCC1)Nc1nc2cc(C3(O)c4ccccc4C(=O)N3c3cccc(Cl)c3F)ccc2[nH]1` (stereo not drawn) [Entry 288, N-{5-[2-(3-chloro-2-fluorophenyl)-1-hydroxy-3-oxo-2,3-dihydro-1H-isoindol-1-yl]-1H-benzimidazol-2-yl}-4-piperidin-1-ylbutanamide]: the IC50 in assay [1] (setting [3]) and in assay [2] (setting [4]) was under 0.1 µM throughout.

As for `Cc1ccnc(Nc2nc3cc(C4(O)c5ccccc5C(=O)N4c4cccc(Cl)c4F)ccc3[nH]2)n1` (stereo not drawn) [Entry 385, 2-(3-chloro-2-fluorophenyl)-3-hydroxy-3-{2-[(4-methylpyrimidin-2-yl)amino]-1H-benzimidazol-5-yl}-2,3-dihydro-1H-isoindol-1-one], the IC50 in assay [1] (setting [3]) and in assay [2] (setting [4]) was under 0.1 µM in each case.

For `COC(=O)Nc1nc2cc(C3(O)c4ccccc4C(=O)N3c3cccc(CN(C)C)c3)ccc2[nH]1` (stereo not drawn) [Entry 235, methyl [5-(2-{3-[(dimethylamino)methyl]phenyl}-1-hydroxy-3-oxo-2,3-dihydro-1H-isoindol-1-yl)-1H-benzimidazol-2-yl]carbamate], the IC50 in assay [1] (read-out: cRaf-1 IC50) and in assay [2] (read-out: bRaf IC50) was 0.1 to 1 µM in each case.

In the case of `COc1cccc(CN2C(=O)c3ccccc3C2(O)c2ccc3c(c2)NC(=O)CO3)c1OC` (stereo not drawn) [Entry 54], the IC50 in assay [1] (read-out: cRaf-1 IC50) and in assay [2] (read-out: bRaf IC50) was at least 10 µM throughout.

In the case of `COC(=O)Nc1nc2cc(C3(O)c4ccccc4C(=O)N3c3cc(Br)c(F)cc3F)ccc2[nH]1` (stereo not drawn) [Entry 244, methyl {5-[2-(5-bromo-2,4-difluorophenyl)-1-hydroxy-3-oxo-2,3-dihydro-1H-isoindol-1-yl]-1H-benzimidazol-2-yl}carbamate], the IC50 in assay [1] (read-out: cRaf-1 IC50) and in assay [2] (read-out: bRaf IC50) was under 0.1 µM in each case.

`COC(=O)Nc1nc2cc(C3(O)c4ccccc4C(=O)N3C3Cc4ccccc4C3)ccc2[nH]1` (stereo not drawn) [Entry 111, methyl {5-[2-(2,3-dihydro-1H-inden-2-yl)-1-hydroxy-3-oxo-2,3-dihydro-1H-isoindol-1-yl]-1H-benzimidazol-2-yl}carbamate]: the IC50 in assay [1] (read-out: cRaf-1 IC50) and in assay [2] (read-out: bRaf IC50) was at least 10 µM each time.

As to `COC(=O)Nc1nc2ccc(C3(C)c4ccccc4C(=O)N3c3cccc(C(F)(F)F)c3)cc2[nH]1` (stereo not drawn) [Entry 254, methyl (6-{1-methyl-3-oxo-2-[3-(trifluoromethyl)phenyl]-2,3-dihydro-1H-isoindol-1-yl}-1H-benzimidazol-2-yl)carbamate], the IC50 in assay [1] (read-out: cRaf-1 IC50) and in assay [2] (read-out: bRaf IC50) was under 0.1 µM throughout.

Consider `CN(C)CCOc1cccc(N2C(=O)c3ccccc3C2(O)c2ccc3c(c2)NC(=O)CO3)c1` (stereo not drawn) [Entry 89, 6-[2-(3-{[2-(dimethylamino)ethyl]oxy}phenyl)-1-hydroxy-3-oxo-2,3-dihydro-1H-isoindol-1-yl]-2H-1,4-benzoxazin-3(4H)-one], for which the IC50 in assay [1] (read-out: cRaf-1 IC50) and in assay [2] (read-out: bRaf IC50) was at least 10 µM each time.

On to `C#Cc1cccc(N2C(=O)c3ccccc3C2(O)c2ccc3[nH]c(NC(=O)OC)nc3c2)c1` (stereo not drawn) [Entry 179, methyl {5-[2-(3-ethynylphenyl)-1-hydroxy-3-oxo-2,3-dihydro-1H-isoindol-1-yl]-1H-benzimidazol-2-yl}carbamate], for which the IC50 in assay [1] (read-out: cRaf-1 IC50) and in assay [2] (read-out: bRaf IC50) was under 0.1 µM in each case.

For `O=C1COc2ccc(C3(O)c4ccccc4C(=O)N3c3cc(Cl)cc(Cl)c3)cc2N1` (stereo not drawn) [Entry 87, 6-[2-(3,5-dichlorophenyl)-1-hydroxy-3-oxo-2,3-dihydro-1H-isoindol-1-yl]-2H-1,4-benzoxazin-3(4H)-one], the IC50 in assay [1] (read-out: cRaf-1 IC50) and in assay [2] (read-out: bRaf IC50) was 1 to 10 µM each time.

On to `COC(=O)Nc1nc2cc(C3(O)c4ccccc4C(=O)N3[C@@H](C)c3ccccc3)ccc2[nH]1` (stereo partly drawn) [Entry 105, methyl (5-{1-hydroxy-3-oxo-2-[(1S)-1-phenylethyl]-2,3-dihydro-1H-isoindol-1-yl}-1H-benzimidazol-2-yl)carbamate], for which the IC50 in assay [1] (read-out: cRaf-1 IC50) and in assay [2] (read-out: bRaf IC50) was 1 to 10 µM each time.

Regarding `O=C1COc2ccc(C3(O)c4ccccc4C(=O)N3c3cccc([N+](=O)[O-])c3)cc2N1` (stereo not drawn) [Entry 42, 6-[1-hydroxy-2-(3-nitrophenyl)-3-oxo-2,3-dihydro-1H-isoindol-1-yl]-2H-1,4-benzoxazin-3(4H)-one], the IC50 in assay [1] (read-out: cRaf-1 IC50) lay within 0.1 to 1 µM; in assay [2] (read-out: bRaf IC50), 1 to 10 µM.

Take `O=C1COc2ccc(C3(O)c4ccccc4C(=O)N3c3ccccc3Cl)cc2N1` (stereo not drawn) [Entry 72, 6-[2-(2-chlorophenyl)-1-hydroxy-3-oxo-2,3-dihydro-1H-isoindol-1-yl]-2H-1,4-benzoxazin-3(4H)-one]: the IC50 in assay [1] (read-out: cRaf-1 IC50) and in assay [2] (read-out: bRaf IC50) was 1 to 10 µM each time.

Take `COc1cc(OC)nc(Nc2nc3cc(C4(O)c5ccccc5C(=O)N4c4cccc(Cl)c4F)ccc3[nH]2)n1` (stereo not drawn) [Entry 386, 3-(2-{[4,6-bis(methyloxy)pyrimidin-2-yl]amino}-1H-benzimidazol-5-yl)-2-(3-chloro-2-fluorophenyl)-3-hydroxy-2,3-dihydro-1H-isoindol-1-one]: the IC50 in assay [1] (setting [3]) and in assay [2] (setting [4]) was under 0.1 µM in each case.

Take `COCCOC(=O)Nc1nc2cc(C3(O)c4ccccc4C(=O)N3c3cccc(Cl)c3F)ccc2[nH]1` (stereo not drawn) [Entry 336, 2-(methyloxy)ethyl {5-[2-(3-chloro-2-fluorophenyl)-1-hydroxy-3-oxo-2,3-dihydro-1H-isoindol-1-yl]-1H-benzimidazol-2-yl}carbamate]: the half-maximal inhibitory concentration (IC50) in assay [1] (setting [3]) and in assay [2] (setting [4]) was under 0.1 µM each time.

As to `O=C1COc2ccc(C(=O)c3ccccc3-c3nc4ccccc4[nH]3)cc2N1` [Entry 49, 6-{[2-(1H-benzimidazol-2-yl)phenyl]carbonyl}-2H-1,4-benzoxazin-3(4H)-one], the IC50 in assay [1] (read-out: cRaf-1 IC50) and in assay [2] (read-out: bRaf IC50) was at least 10 µM throughout.

Turning to `COC(=O)Nc1nc2cc(C3(O)c4ccccc4C(=O)N3c3cc(Cl)cc(Cl)c3)ccc2[nH]1` (stereo not drawn) [Entry 155, methyl {5-[2-(3,5-dichlorophenyl)-1-hydroxy-3-oxo-2,3-dihydro-1H-isoindol-1-yl]-1H-benzimidazol-2-yl}carbamate], the IC50 in assay [1] (read-out: cRaf-1 IC50) and in assay [2] (read-out: bRaf IC50) was under 0.1 µM in each case.

Turning to `CN1CCN(CCCC(=O)Nc2nc3cc(C4(O)c5ccccc5C(=O)N4Cc4ccccc4)ccc3[nH]2)CC1` (stereo not drawn) [Entry 264, N-{5-[1-hydroxy-3-oxo-2-(phenylmethyl)-2,3-dihydro-1H-isoindol-1-yl]-1H-benzimidazol-2-yl}-4-(4-methylpiperazin-1-yl)butanamide], the IC50 in assay [1] (read-out: cRaf-1 IC50) and in assay [2] (read-out: bRaf IC50) was under 0.1 µM in each case.

For the molecule `COC(=O)Nc1nc2cc(C3(O)c4ccccc4C(=O)N3Cc3ccccc3F)ccc2[nH]1` (stereo not drawn) [Entry 123, methyl (5-{2-[(2-fluorophenyl)methyl]-1-hydroxy-3-oxo-2,3-dihydro-1H-isoindol-1-yl}-1H-benzimidazol-2-yl)carbamate], the IC50 in assay [1] (read-out: cRaf-1 IC50) and in assay [2] (read-out: bRaf IC50) was under 0.1 µM in each case.

The IC50 is the concentration that inhibits the measured activity by half.
